Several values for one entry are separate records, joined by “and”; a condition that tells them apart may be missing. Equal entries are not always repeated. Where two headings read alike, the source gives them in different places.

The test system of experiment [1] is phenyl-p-quinone writhing. Briefly: phenyl-p-quinone writhing assay (analgesia). The following applies: for ED50: Mus musculus, sc, read-out: ED50, inhibition of writhing; for inhibition of writhing at indicated dose: @ 20 mg/kg, s.c. It counts as in vivo, mice. A general note: In writhing tests, fewer writhes than in controls are read as antinociception.
Experiment [2] relates to apomorphine climbing. Briefly: apomorphine climbing mice assay (antipsychotic activity). The format is in vivo, mice (CK-1 male). The following applies: for % decrease in climbing score at indicated dose: @ 10 mg/kg, i.p.; for ED50: Mus musculus, ip, read-out: ED50, antipsychotic activity (climbing). The procedure: Antipsychotic activity is determined in the climbing mice assay by methods similar to those described by P. Protais, et al., Psychopharmacol., 50, 1 (1976) and B. Costall, Eur. J. Pharmacol., 50, 39 (1978).
The subject CK-1 male mice (23-27 grams) are group-housed under standard laboratory conditions. The mice are individually placed in wire mesh stick cages (4"×4" by 10") and are allowed one hour for adaptation and exploration of the new environment. Then apomorphine is injected subcutaneously at 1.5 mg/kg, a dose causing climbing in all subjects for 30 minutes. Compounds to be tested for antipsychotic activity are injected intraperitoneally (i.p.) 30 minutes prior to the apomorphine challenge at a screening dose of 10 mg/kg.
For evaluation of climbing, 3 readings are taken at 10, 20, and 30 minutes after apomorphine administration according to the following scale:
4 paws on bottom (no climbing)
2 paws on the wall (rearing)
4 paws on the wall (full climb)
Mice consistently climbing before the injection of apomorphine will be discarded.
With full-developed apomorphine climbing, the animals are hanging onto the cage walls, rather motionless, over longer periods of time. By contrast, climbs due to mere motor stimulation usually only last a few seconds.
The climbing scores are individually totaled (maximal score: 6 per mouse over 3 readings) and the total score of the control group (vehicle intraperitoneally-apomorphine subcutaneously) is set to 100%. ED50 values with 95% confidence limits, calculated by a Linear Regression Analysis of some of the instant 3-(piperidinyl)-1H-indazoles and 3-(pyrrolidinyl)-1H-indazoles as well as standard antipsychotics, are presented in Table 1.

Experiment [3] relates to supramaximal electroshock (extensor tonus). Nature of the experiment: supramaximal electroshock (SES) assay, anticonvulsant activity. The following applies: for ED50 SES: i.p.; for ED50 SES / ED50: 206 volts rms for 300 msec; for ED50: Mus musculus, ip; for SES, % protection (normalized percent inhibition) at indicated dose: @ 60 mg/kg i.p. It counts as in vivo, male mouse. The procedure:
The compounds of the invention are also useful as anticonvulsants due to their anticonvulsant activity in mammals. Anticonvulsant activity is measured in the male mouse using the supramaximal electroshock (SES) assay described in Arch. Int. Pharmacodyn. 92: 97-107, 1952. In this procedure groups of animals are used. Drugs are prepared using distilled water and, if insoluble, a surfactant is added. Control animals receive vehicle. Drugs are routinely administered intraperitoneally (i.p.). The dosage volume is 10 ml/kg. A primary screen is given a 30 minute pretreat. The animal's eyes are placed across the output terminals of an A.C. shocker that delivers 206 volts rms for 300 msec. Electrode paste coats the animals eyes at the point of contact with the terminals. […] Protection is expressed as normalized percent inhibition relative to vehicle control.
A time response is carried out using six animals/group. Animals are tested at 30, 60 and 120 minutes postdrug. Additional time periods are tested if indicated by previous tests. When the peak activity time has been determined, a dose response is initiated using 10 animals/group at that time period. The ED50 and 95% confidence interval are calculated by computer probit analysis.

The subject of experiment [4] is metrazol lethality (pentylenetetrazol). Nature of the experiment: metrazol lethality (MTZ), anticonvulsant activity. It counts as in vivo, male mice. The following applies: for MTZ, % protected at indicated dose: @ 60 mg/kg i.p.; for ED50: Mus musculus, ip. The procedure:
Anticonvulsant activity is also measured using the metrazol lethality (MTZ). In this procedure groups of male mice are utilized. Test drugs are prepared using distilled water and, if insoluble, a suitable surfactant is added. The route of administration is i.p., but all administration are in volumes proportional to 10 cc/kg.
For a time response, 25 animals (5/group) are administered drug i.p. at 15, 30, 60 and 90 minutes prior to Metrazol treatment. Control animals (2/group) receive vehicle. Metrazol (pentylenetetrazol) is prepared at a concentration of 225 mg/10 ml in distilled water. Metrazol is administered s.c. at 225 mg/kg in distilled water. Those animals alive 15 minutes after Metrazol injection are considered protected. The time period with the greatest percent protected is said to be that of peak drug activity.
A dose range is run in the same manner as a time response except that 50 animals (10/group) are tested at the peak time of drug activity. One group receives vehicle. An ED50 is calculated by means of linear regression.

Setting [5] is: 30 minutes prior to apomorphine 1.5 mg/kg s.c.

For the molecule `CN1CCC(c2nn(-c3ccc(C(F)(F)F)cc3)c3ccccc23)CC1.Cl` [3-(1-Methyl-4-piperidinyl)-1-[4-(trifluoromethyl)phenyl]-1H-indazole hydrochloride], the ED50 in experiment [1] (approximately 50% inhibition) is 9.8 mg/kg.
For the molecule `Br.CCn1nc(C2CCN(C)CC2)c2ccccc21` [1-Ethyl-3-(1-methyl-4-piperidinyl)-1H-indazole hydrobromide], the 50% effective dose (ED50) in experiment [1] was determined as 0.65 mg/kg. Besides, the “% decrease in climbing score at indicated dose” value (“% decrease in climbing score” for short) in experiment [2] is 41%.
In the case of “1-(2-Phenylethyl)-3-(1-methyl-4-piperidinyl)-1H-indazole hydrobromide [Example 14]”, the “ED50 SES” value in experiment [3] is listed as 34.9 mg/kg.
Turning to “1-(6-Fluoro-1,2-benzisoxazole-3-propyl)-3-(1-methyl-4-piperidinyl)-1H-indazole maleate [Example 11]”, the “ED50 MTZ” value in experiment [4] (i.p., Metrazol 225 mg/kg s.c.) worked out at 79.6 mg/kg.
As to `CNC(=O)N1CCC(c2nn(-c3ccccc3)c3cc(F)ccc23)CC1` [Compound 4, N-Methyl-4-(6-fluoro-1-phenyl-1H-indazol-3-yl)piperidine-1-carboxamide], the “MTZ, % protected at indicated dose” value in experiment [4] stood at 0%. Further, in experiment [3], the ED50 is 64.9 mg/kg.
With `CC(=O)n1nc(C2CCN(C)CC2)c2ccccc21.Cl` [1-Acetyl-3-(1-methyl-4-piperidinyl)-1H-indazole hydrochloride], the ED50 in experiment [1] was 0.71 mg/kg; in experiment [2] it was 5.4 mg/kg.
For `O=CN1CCC(c2nn(-c3ccc(F)cc3)c3ccccc23)CC1` [Compound 13], the “MTZ, % protected at indicated dose” value in experiment [4] is 40%. Further, in experiment [3], the ED50 stood at 24.7 mg/kg.
Consider `CN1CCC(c2nn(C(=O)c3ccccc3)c3cc(F)ccc23)CC1.O=C(O)/C=C/C(=O)O` [1-Benzoyl-6-fluoro-3-(1-methyl-4-piperidinyl)-1H-indazole fumarate], for which the values for the ED50 in experiment [1] (approximately 50% inhibition) and in experiment [2] (setting [5]) were 0.17 mg/kg and 1.8 mg/kg, respectively.
As to `CN1CCC(c2nn(C(=O)c3ccccc3)c3ccccc23)CC1.Cl` [1-Benzoyl-3-(1-methyl-4-piperidinyl)-1H-indazole hydrochloride], the ED50 in experiment [1] (approximately 50% inhibition) came to 0.85 mg/kg; in experiment [2] (setting [5]), 6.5 mg/kg.
For the molecule `O=C(CCCN1CCC(O)(c2ccc(Cl)cc2)CC1)c1ccc(F)cc1` [haloperidol, reference compound], the ED50 in experiment [2] was determined as 0.11 mg/kg.
Turning to “1-Hydroxymethyl-3-(1-methyl-4-piperidinyl)-1H-indazole [Example 10]”, the “ED50 SES” value in experiment [3] amounted to 35.3 mg/kg.
In the case of `Fc1ccc2c(C3CCN(C(=S)Nc4ccccc4)CC3)nn(-c3ccccc3)c2c1` [Compound 5, N-Phenyl-4-(6-fluoro-1-phenyl-1H-indazol-3-yl)piperidine-1-carbothioamide], the “MTZ, % protected at indicated dose” value in experiment [4] was 17%. Moreover, in experiment [3], the “SES, % protection (normalized percent inhibition) at indicated dose” value was found to be 0%.
Turning to `Br.CN1CCC(c2nn(Cc3ccccc3)c3ccccc23)CC1` [1-Phenylmethyl-3-(1-methyl-4-piperidinyl)-1H-indazole hydrobromide], the “inhibition of writhing at indicated dose” value in experiment [1] (hydrobromide) is 75% and 96%.
Regarding `CN(C)C(=O)N1CCC(c2nn(-c3ccc(C(F)(F)F)cc3)c3ccccc23)CC1` [Compound 16], in experiment [4], the “MTZ, % protected at indicated dose” value is recorded as 20%. Also, the “SES, % protection (normalized percent inhibition) at indicated dose” value in experiment [3] stood at 20%.
Turning to `CC(=O)N1CCC(c2nn(-c3ccccc3)c3cc(Br)ccc23)CC1` [Compound 8, 1-Acetyl-4-(6-bromo-1-phenyl-1H-indazol-3-yl)piperidine], in experiment [4], the “MTZ, % protected at indicated dose” value turned out to be 0%. For the same molecule, in experiment [3], the “SES, % protection (normalized percent inhibition) at indicated dose” value was 33%.
`CCC(=O)O[C@](Cc1ccccc1)(c1ccccc1)[C@H](C)CN(C)C` [propoxyphene, reference compound]: the ED50 in experiment [1] was determined as 3.9 mg/kg.
Regarding “1-(4-Nitrophenyl)-3-(1-methyl-4-piperidinyl)-1H-indazole hydrochloride [Example 7]”, the “SES, % protection (normalized percent inhibition) at indicated dose” value in experiment [3] came out at 0%.
On to `CN1CCC(c2n[nH]c3ccccc23)CC1` [3-(1-methyl-4-piperidinyl)-1H--indazole, 3-(1-Methyl-4-piperidinyl)-1H-indazole], for which the ED50 in experiment [1] worked out at 0.26 mg/kg; in experiment [2], 4.5 mg/kg.
Regarding `Br.CN1CCC(c2nn(CC3CC3)c3ccccc23)CC1` [1-Cyclopropylmethyl-3-(1-methyl-4-piperidinyl)-1H-indazole hydrobromide], the ED50 in experiment [1] (approximately 50% inhibition) worked out at 1.1 mg/kg. Moreover, the “% decrease in climbing score” value in experiment [2] was found to be 36%.
On to `CNC(=O)N1CCC(c2nn(-c3ccc(C(F)(F)F)cc3)c3ccccc23)CC1` [Compound 6], for which the “MTZ, % protected at indicated dose” value in experiment [4] was 20%. Further, the ED50 in experiment [3] amounted to 44.9 mg/kg.
Regarding `Br.NC(=O)N1CCC(c2nn(-c3ccc(C(F)(F)F)cc3)c3ccccc23)CC1` [Compound 3, 4-[1-[4-(Trifluoromethyl)phenyl]-1H-indazol-3-yl]-1-piperidine carboxamide hydrobromide], the ED50 in experiment [4] (Metrazol 225 mg/kg s.c.) is 27.4 mg/kg; in experiment [3], 10.9 mg/kg.
For the molecule `CN1CCC(c2nn(C(=O)OCC(Cl)(Cl)Cl)c3ccccc23)CC1.Cl` [3-(1-Methyl-4-piperidinyl)-1-trichloroethoxycarbonyl-1H-indazole hydrochloride], the “% decrease in climbing score” value in experiment [2] came out at 46%.
With `CN(C)CCCn1nc(C2CCN(C)CC2)c2ccccc21.O=C(O)/C=C/C(=O)O.O=C(O)/C=C/C(=O)O` [1-[3-(Dimethylamino)propyl]-3-(1-methyl-4-piperidinyl)-1H-indazole difumarate], the “inhibition of writhing at indicated dose” value in experiment [1] worked out at 15%.
As to `CNC(=O)N1CCC(c2nn(-c3ccccc3F)c3ccccc23)CC1` [Compound 1], the values for the ED50 in experiment [4] (Metrazol 225 mg/kg s.c.) and in experiment [3] were 49 mg/kg and 37 mg/kg, respectively.
As for `O=C(Nc1ccccc1)N1CCC(c2nn(-c3ccccc3)c3cc(F)ccc23)CC1` [Compound 2, N-Phenyl-4-(6-fluoro-1-phenyl-1H-indazol-3-yl)piperidine-1-carboxamide], the “MTZ, % protected at indicated dose” value in experiment [4] is given as 20%. Also, the “SES, % protection (normalized percent inhibition) at indicated dose” value in experiment [3] was determined as 0%.
`CNC(=O)N1CCC(c2nn(-c3ccc(F)cc3)c3ccccc23)CC1` [Compound 9]: the ED50 was 45.5 mg/kg in experiment [4] (Metrazol 225 mg/kg s.c.) and 31.7 mg/kg in experiment [3].
As to `Fc1ccc(C(CCCN2CCC(c3n[nH]c4ccccc34)CC2)c2ccc(F)cc2)cc1` [3-[1-[4,4-bis(4-Fluorophenyl)butyl]-4-piperidinyl]-1H-indazole], the “inhibition of writhing at indicated dose” value in experiment [1] was 31%. The ED50 in experiment [2] (setting [5]) was determined as 7.4 mg/kg.
As to `NC(=O)N1CCC(c2nn(-c3ccccc3)c3cc(Cl)ccc23)CC1` [Compound 15, 4-(6-Chloro-1-phenyl-1H-indazol-3-yl)piperidine-1-carboxamide], the ED50 was 31.2 mg/kg in experiment [4] (Metrazol 225 mg/kg s.c.) and 48.1 mg/kg in experiment [3].
Consider `CC(C)=CCN1CCC2(C)c3cc(O)ccc3CC1C2C` (stereo not shown) [pentazocine, reference compound], for which the ED50 in experiment [1] was 1.3 mg/kg.
Consider `O=CN1CCC(c2nn(-c3ccc(C(F)(F)F)cc3)c3ccccc23)CC1` [Compound 12], for which the results for the ED50 in experiment [4] (Metrazol 225 mg/kg s.c.) and in experiment [3] were 60.9 mg/kg and 27.2 mg/kg, respectively.

In general, ED50 refers to the dose that gives a 50% effect, or the effect in half of the subjects.

Values taken from patent publication US4853470A, “3-(piperidinyl)- and 3-(pyrrolidinyl)-1H-indazoles” (Hoechst-Roussel Pharmaceuticals, Inc., priority 1988, dated 1989).
